From US20140301961A1, “COMPOUNDS WITH ANTI-AGING ACTIVITIES” (priority 2011, published 2014)

What was measured:
[1] = tested on: tachykinin, precursor 1 (TAC1); experiment: Affymetrix gene array on skin explants, TAC1; type: cell-based, human; details: topical, 24 hours
Description: (§1) Subcutaneous fat from full thickness skin, obtained from surgical waste material from breast reduction procedures, was removed with a scalpel. Three healthy Caucasian female donors were used for this study. The female donors differed from those of the skin-treatment study outlined previously 8 mm punch biopsies were taken from the skin (and these biopsies are now referred to as skin explants). Skin explants were put on Milipore cell culture inserts (12 mm diameter). Inserts containing skin explants were put in 6-well plates (one insert/well) and 1 mL of supplemented keratinocyte medium (ex Cascade Biologics) was added to each well. A tretinoin-containing cream (Aberela® ex. Janssen): 0.05% tretinoin in the cream, was applied topically to each explant (5 μL/cm^2) using a positive displacement pipette. A placebo cream without tretinoin was used as a control. The skin explants were incubated with tretinoin for 24 hours at 37° C. in 5% CO2-humidified air.
(§2) RNA concentration was measured with ND-1000 spectrophotometer (ex. NanoDrop Technologies) and RNA quality was evaluated using the Agilent 2100 bioanalyzer system (ex. Agilent Technologies). 250 nanograms of total RNA from each skin or skin explant sample was used to prepare biotinylated fragmented cRNA according to the GeneChip® 3′IVT Express Kit Manual (PN702646 Rev 1, ex. Affymetrix Inc.). Affymetrix GeneChip® expression arrays (Human Genome U133 Plus 2.0) were hybridized for 16 hours in a 45° C. incubator, rotated at 60 rpm. According to the GeneChip Expression Wash, Stain and Scan Manual (PN 702731 Rev 2, ex. Affymetrix Inc.) the arrays were washed and stained using the Fluidics Station 450 and scanned using the GeneChip® Scanner 3000 7G.
(§3) Analysis of the gene expression data was carried out in the statistical computing language R (http://www.r-project.org) using packages available from the Bioconductor project (www.bioconductor.org). The raw data was normalized using the robust multi-array average (RMA) method. In order to search for differentially expressed genes between the X samples and the Y samples group an empirical Bayes moderated t-test was then applied using the ‘limma’ package.
(§4) Skin explants were obtained as detailed in Example 3.1.

[2] = tested on: Kallikrein 8; experiment: Kallikrein 8 ELISA in human normal keratinocytes; type: cell-based; details: 4 days stimulation (FIG. 14)
Experimental: Keratinocytes were cultured in commercially available keratinocyte medium M154 (Cascade Biologics/Invitrogen) # M154500 with a final calcium […]. Supplements were added meeting following final concentrations of growth factors; bovine pituitary extract (BPE), 0.2% v/v·bovine insulin, 5 μg/ml·hydrocortisone, 0.18 μg/ml·bovine transferrin, 5 μg/ml·human epidermal growth factor, 0.2 ng/ml.
Keratinocytes used for Kallikrein 8 experiments were cultured as described in example 2.1. Experiments were performed in monolayers with 80% confluence. The cells were stimulated for 4 days prior to kallikrein 8 analysis with the different actives and then culture supernatant were collected and stored in −20° C. until further analysis. Kallikrein 8 production was analysed in cell culture supernatants from stimulated keratinocytes using a ELISA assay specific for Kallikrein 8 (Uscn Life Science Inc, E90690Hu). Results were compared with cell culture supernatants from DMSO vehicle treated cells. The assays utilized a 96-well microplate format and were processed according to the manufacturer's protocol, including generation of a standard curve prepared in background assay diluents. Absorbance of the assay dye was read at a Synergy HT plate reader. Values that fell within the linear range of the calibration assay were accepted. Quantities were determined by comparison to standard curves obtained for KLK8.

[3] = tested on: steroid 5 alpha-reductase 3 (SRD5A3); experiment: Affymetrix gene array on skin explants, SRD5A3; type: cell-based, human; details: topical, 24 hours
Description: as §1, §2, §3, §4

[4] = tested on: hydroxysteroid (17-beta) dehydrogenase 2 (HSD17B2); experiment: Affymetrix gene array on skin explants, HSD17B2; type: cell-based, human; details: topical, 24 hours
Description: as §1, §2, §3, §4

[5] = tested on: VEGF; experiment: Inflammation induced VEGF synthesis in cultured dermal fibroblasts; type: cell-based, human; details: inflammatory inducer PMA (FIG. 10)
Experimental: MMP-inhibitory activity for compounds of the invention was also assessed on human dermal fibroblasts. Dermal fibroblasts were cultured in Dulbecco's Modified Eagle Medium (DMEM) (Invitrogen) with 10% EBS (ex. Invitrogen) and 1% Pencillin/Streptavidin (ex. Invitrogen). To induce inflammation in the cells, PMA (phorbol myristate acetate) (ex. Sigma) was used at a concentration of 10 nM. […] The cells were stimulated for 24 h and the culture supernatant was collected and stored at −20° C. until further analysis.
(§5) Fluorokine MultiAnalyte Profiling (xMAP) using the BioPlex (ex. Biorad) dual laser flow-based sorting and detection analyzers manufactured by Luminex corporation (Luminex, Austin, Tex.) was employed to measure levels of MMP in conditioned media samples of stimulated dermal fibroblasts. The technology incorporated polystyrene microspheres dyed internally with differing ratios of two spectrally distinct fluorophores to create a family of different spectrally addressed bead sets. The bead utilized in this study was conjugated with a biotinylated capture antibody specific for a unique MMPs, The assay was performed without antecedent serum depletion. Results were compared with medium from cells treated with vehicle only (DMSO). The assays utilized a 96-well microplate format and were processed according to the manufacturer's protocol, including generation of a standard curve for each target prepared in background assay diluents. Values that fell within the linear range of the calibration assay were accepted. Samples were analyzed using the Bio-Plex suspension array system and Bio-Plex Manager software 4.0 (Bio-Rad Laboratories, Hercules, Calif.). Quantities were determined by comparison to standard curves obtained for the different MMP.
Cell culture and cytokine analysis was carried out on human dermal fibroblasts as described in Example 3.1. The methodology was adapted in order analyze VEGF production.

[6] = tested on: MMP3; experiment: PMA inflammation induced MMP3 production in human dermal fibroblasts; type: cell-based; details: PMA 10 nM, 24 h (FIG. 4)
Experimental: as §5, with “MMP-inhibitory activity for compounds of the invention was also assessed on human dermal fibroblasts. Dermal fibroblasts were cultured in Dulbecco's Modified Eagle Medium (DMEM) (Invitrogen) with 10% EBS (ex. Invitrogen) and 1% Pencillin/Streptavidin (ex. Invitrogen). To induce inflammation in the cells, PMA (phorbol myristate acetate) (ex. Sigma) was used at a concentration of 10 nM. […] The cells were stimulated for 24 h and the culture supernatant was collected and stored at −20° C. until further analysis. Fluorokine” for “Fluorokine”

Q: Which TAC1 gene expression [1] does the source give for `C=C1C[C@]23C[C@@]1(O)CC[C@H]2[C@@]12C=C[C@H](O)[C@@](C)(C(=O)O1)[C@@H]2[C@@H]3C(=O)O` [Gibberellic acid, (3S,3aS,4S,4aS,7S,9aR,9bR,12S)-7,12-dihydroxy-3-methyl-6-methylene-2-oxoperhydro-4a,7-methano-9b,3-propenoazuleno[1,2-b]furan-4-carboxylic acid] here?
A: −0.62 log 2−ratio

Q: What about the “synthesis of kallikrein 8” value [2] of the same molecule?
A: significant increase in the synthesis of kallikrein 8

Q: What about the SRD5A3 gene expression [3] of the same molecule?
A: −0.75 log 2−ratio

Q: What about the HSD17B2 gene expression [4] of the same molecule?
A: −0.52 log 2−ratio

Q: What about the “inflammatory induced VEGF synthesis” value [5] of the same molecule?
A: reduce inflammatory induced VEGF synthesis

Q: And the “inhibition of PMA inflammation induced MMP3 production” value (“inhibition” for short) [6]?
A: inhibition

Q: `O=C1C[C@@H](c2ccc(O)cc2)Oc2cc(O)cc(O)c21` [Naringenin, (S)-2,3-Dihydro-5,7-dihydroxy-2-(4-hydroxyphenyl)-4H-1-benzopyran-4-one] was tested. Which TAC1 gene expression [1] did it give?
A: −2.78 log 2−ratio

Q: And the “synthesis of kallikrein 8” value [2]?
A: significant increase in the synthesis of kallikrein 8

Q: And the SRD5A3 gene expression [3]?
A: 1.25 log 2−ratio

Q: And the HSD17B2 gene expression [4]?
A: −0.83 log 2−ratio

Q: And the “inflammatory induced VEGF synthesis” value [5]?
A: reduce inflammatory induced VEGF synthesis

Q: And the “inhibition” value [6]?
A: inhibition

Q: How did the TAC1 gene expression [1] turn out when `CC(=O)N[C@@H](CC(=O)O)C(=O)O` [N-Acetyl aspartic acid, (2S)-2-Acetamidobutanedioic acid] was run?
A: −1.23 log 2−ratio

Q: And the “synthesis of kallikrein 8” value [2]?
A: significant increase in the synthesis of kallikrein 8

Q: And the SRD5A3 gene expression [3]?
A: −1.54 log 2−ratio

Q: What about the HSD17B2 gene expression [4] of the same molecule?
A: −1.46 log 2−ratio

Q: What about the “inflammatory induced VEGF synthesis” value [5] of the same molecule?
A: reduce inflammatory induced VEGF synthesis

Q: And the “inhibition” value [6]?
A: inhibition
